Results reported in patent publication US4762840A, “Pyrimido[2,1-b]benzothiazoles having antiallergic activity” (Roussel Uclaf, priority 1984, dated 1988).

These compounds were tested on lungs (assay: Antigen-induced elevation of lung perfusion pressure (isolated perfused sensitized lung, ovalbumen)). Conditions: Cavia porcellus; perfused lungs of ovalbumen-sensitized guinea pigs; compound in krebs fluid 30 minutes prior to second antigen dose (15 μg ovalbumen); at least four lungs per concentration; read-out: IC50 (inhibition of antigen induced broncho-constriction).
Parameters: species or system guinea pig (Dunkin Hartley)
Description: Antigen-induced elevation of lung perfusion pressure
Male Dunkin Hartley guinea pigs (Porcellus) weighing between 450-700 g were used (four per test concentration) and were housed in cages. The animals were sensitized by two weekly exposures to 1% W/V aerosol ovalbumen. The animals were anaesthetized with 2.5 mg/kg diazepam i.p. and 1 ml/kg Hyponorm i.m. Following anaethesia, the animals were exsanguinated by severing both carotid arteries and the chest was opened and the lungs removed, split into two at the carina and both cannulated via the main lobar bronchus and connected to a perfusion system. The lungs were perfused with aerated krebs fluid (95% O2 :5% CO2) at 37° C. and 5 μg in 0.1 ml Ovalbumen was injected through an injection port proximal to each lung. Elevation of perfusion pressure by the antigen was recorded and sixty minutes later, 15 μg of ovalbumen were administered. The test compounds were added to the krebs fluid reservoir thirty minutes prior to the second antigen dose. For each weekly batch of animals used, control measurements were made without treatment (n=10 ). The second antigen response was expressed as a percentage of the first. For each test, at least four lungs from four different animals were used per concentration. The percentage inhibition of antigen induced broncho-constriction was calculated.
With `CC(C(=O)OC(C)(C)C)c1ccc2c(c1)sc1nc(=O)cc(-c3ccccc3)n12` (stereo not drawn) [Example 39, t-Butyl α-methyl-4-phenyl-2-oxo-2H-pyrimido[2,1-b]benzothiazole-8-acetate] the IC50 was 0.1 µM. Work on `CCOC(=O)C(CC)(CC)c1ccc2c(c1)sc1nc(=O)cc(-c3ccccc3)n12` [Example 40, Ethyl α,α-diethyl-4-phenyl-2-oxo-2H-pyrimido[2,1-b]benzothiazole-8-acetate] yielded an IC50 of 10 to 100 µM. For `CCCC(CC)(C(=O)OCC)c1ccc2c(c1)sc1nc(=O)cc(-c3ccccc3)n12` (stereo not drawn) [Example 41, Ethyl α-ethyl-α-propyl-4-phenyl-2-oxo-2H-pyrimido[2,1-b]benzothiazole-8-acetate], the IC50 was 10 to 100 µM. `CCCCC(C)(C(=O)OCC)c1ccc2c(c1)sc1nc(=O)cc(-c3ccccc3)n12` (stereo not drawn) [Example 42, Ethyl α-butyl-α-methyl-4-phenyl-2-oxo-2H-pyrimido[2,1-b]benzothiazole-8-acetate] gave an IC50 of 10 to 100 µM. `CC(C(=O)OCC(C)(C)C)c1ccc2c(c1)sc1nc(=O)cc(-c3ccccc3)n12` (stereo not drawn) [Example 43, 2,2-Dimethylpropyl α-methyl-4-phenyl-2-oxo-2H-pyrimido[2,1-b]benzothiazole-8-acetate] showed an IC50 of 0.1 µM. `CN(C)C(=O)Cc1ccc2c(c1)sc1nc(=O)cc(-c3ccccc3)n12` [Example 44, N,N-dimethyl-2-oxo-4-phenyl-2H-pyrimido[2,1-b]benzothiazole-8-acetamide] showed an IC50 of 10 to 100 µM. Compound `CCNC(=O)Cc1ccc2c(c1)sc1nc(=O)cc(-c3ccccc3)n12` [Example 45, N-ethyl-2-oxo-4-phenyl-2H-pyrimido[2,1-b]benzothiazole-8-acetamide] has an IC50 of 10 to 100 µM. With `O=C(Cc1ccc2c(c1)sc1nc(=O)cc(-c3ccccc3)n12)N1CCOCC1` [Example 46, 1-(N-morpholino)-2-(2-oxo-4-phenyl-2H-pyrimido[2,1-b]benzothiazole-8-yl)-ethanone] the IC50 was > 100 µM. With `CCN(CC)C(=O)Cc1ccc2c(c1)sc1nc(=O)cc(-c3ccccc3)n12` [Example 47, N,N-diethyl-2-oxo-4-phenyl-2H-pyrimido-[2,1-b]benzothiazole-8-acetamide] the IC50 was 10 µM. `O=C(Cc1ccc2c(c1)sc1nc(=O)cc(-c3ccccc3)n12)N1CCCCC1` [Example 48, 1-(N-piperidino)-2-(2-oxo-4-phenyl-2H-pyrimido[2,1-b]benzothiazole-8-yl)-ethanone] gave an IC50 of 10 to 100 µM. `CC(C(=O)OC1(C)CCCCC1)c1ccc2c(c1)sc1nc(=O)cc(-c3ccccc3)n12` (stereo not drawn) [Example 49, 1-Methylcyclohexyl α-methyl-2-oxo-4-phenyl-2H-pyrimido[2,1-b]benzothiazole-8-acetate] was tested, and the IC50 was 1 to 10 µM. In the case of `CC(C(=O)OC12CC3CC(CC(C3)C1)C2)c1ccc2c(c1)sc1nc(=O)cc(-c3ccccc3)n12` (stereo not drawn) [Example 50, 1-Adamantyl α-methyl-2-oxo-4-phenyl-2H-pyrimido[2,1-b]benzothiazole-8-acetate], the IC50 is reported as ≤ 1 µM.
